From PMC2384007 (PLoS ONE, 2008)

Experiments:
[1] = target: T1, Biotin Protein Ligase (MtBPL) (Mycobacterium tuberculosis, UniProt I6YFP0); assay: ITC (VP-ITC, […]°C); type: binding
T1 construct: gene birA; 266 amino acids, hexahistidine tag at N-terminus

[2] = target: Mycobacterium tuberculosis Biotin Protein Ligase (Mycobacterium tuberculosis) (UniProt I6YFP0)
Sequence of Mycobacterium tuberculosis Biotin Protein Ligase (Mycobacterium tuberculosis) (I6YFP0 whole entry): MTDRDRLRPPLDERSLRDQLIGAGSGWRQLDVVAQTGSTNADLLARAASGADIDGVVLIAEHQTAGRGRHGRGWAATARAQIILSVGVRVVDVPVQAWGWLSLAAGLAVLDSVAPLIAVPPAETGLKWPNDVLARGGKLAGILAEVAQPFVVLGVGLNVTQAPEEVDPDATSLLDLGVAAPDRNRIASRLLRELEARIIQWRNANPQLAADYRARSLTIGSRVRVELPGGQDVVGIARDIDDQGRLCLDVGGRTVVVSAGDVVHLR

T1 sequence (I6YFP0 whole entry, looked up): as the sequence (I6YFP0 whole entry) above

Nc1ncnc2c1ncn2[C@@H]1O[C@H](COP(=O)(O)OC(=O)CCCC[C@@H]2SC[C@@H]3NC(=O)N[C@@H]32)[C@@H](O)[C@H]1O [bio-5′-AMP]
Kd [1]: 1360 nM

biotin carboxyl carrier protein (BCCP) domain of M. tuberculosis acetyl CoA carboxylase (domain or fragment)
Km for BCCP in the MtBPL catalysed incorporation of [14C]-biotin into BCCP (steady state kinetics, Michaelis-Menten fit) [2]: 5.2 µM
